{"source": "paper PMC5218480", "about": "(PLoS ONE, 2017)", "system": "MV-4-11 cells", "assay": "Gene expression microarray analysis (Affymetrix PrimeView) and GSEA", "format": "cell-based, human", "set-up": "RFU PODN (11730768_x_at) / Fold change /veh PODN (11730768_x_at) / RFU LINC00158 (11744669_a_at) / Fold change /veh LINC00158 (11744669_a_at) / RFU DUSP10 (11751237_a_at) / Fold change /veh DUSP10 (11751237_a_at) / RFU ID3 (11757404_x_at) / Fold change /veh ID3 (11757404_x_at) / RFU PLEKHG5 (11737974_s_at) / Fold change /veh PLEKHG5 (11737974_s_at) / RFU LRRC4B (11730491_at) / Fold change /veh LRRC4B (11730491_at) / RFU GIMAP4 (11747438_a_at) / Fold change /veh GIMAP4 (11747438_a_at) / RFU KRT8 (11758183_x_at) / Fold change /veh KRT8 (11758183_x_at) / RFU CNN1 (11734310_a_at) / Fold change /veh CNN1 (11734310_a_at) / RFU VPS37D (11726825_at) / Fold change /veh VPS37D (11726825_at) / RFU C10orf10 (11716522_x_at) / Fold change /veh C10orf10 (11716522_x_at) / RFU KIR2DL2 /// KIR2DL4 /// KIR2DL5A /// KIR2DL5B /// KIR2DS1 /// KIR2DS2 /// KIR2DS3 /// KIR2DS4 /// KIR3DL3 /// KIR3DL3 /// KIR3DS1 (11738374_at) / Fold change /veh KIR2DL2 /// KIR2DL4 /// KIR2DL5A /// KIR2DL5B /// KIR2DS1 /// KIR2DS2 /// KIR2DS3 /// KIR2DS4 /// KIR3DL3 /// KIR3DL3 /// KIR3DS1 (11738374_at) / RFU C1QL1 (11718748_at) / Fold change /veh C1QL1 (11718748_at) / RFU TMPRSS4 (11747572_a_at) / Fold change /veh TMPRSS4 (11747572_a_at) / RFU HAMP (11756126_x_at) / Fold change /veh HAMP (11756126_x_at) / RFU RNFT2 (11725882_a_at) / Fold change /veh RNFT2 (11725882_a_at) / RFU NR4A2 (11747474_a_at) / Fold change /veh NR4A2 (11747474_a_at) / RFU ABCC12 (11746883_a_at) / Fold change /veh ABCC12 (11746883_a_at) / RFU TMEM136 (11760407_x_at) / Fold change /veh TMEM136 (11760407_x_at) / RFU CLDN22 /// WWC2 (11732394_at) / Fold change /veh CLDN22 /// WWC2 (11732394_at) / RFU HLA-DPB1 (11760878_x_at) / Fold change /veh HLA-DPB1 (11760878_x_at) / RFU SPINT1 (11716480_a_at) / Fold change /veh SPINT1 (11716480_a_at) / RFU GAP43 (11754022_s_at) / Fold change /veh GAP43 (11754022_s_at) / RFU A4GNT (11735810_at) / Fold change /veh A4GNT (11735810_at) / RFU PRB3 (11715151_x_at) / Fold change /veh PRB3 (11715151_x_at) / RFU TUBB4B (11761932_at) / Fold change /veh TUBB4B (11761932_at) / RFU CAPN14 (11732068_a_at) / Fold change /veh CAPN14 (11732068_a_at) / RFU TMCC2 (11721928_a_at) / Fold change /veh TMCC2 (11721928_a_at) / RFU IRGQ (11745062_a_at) / Fold change /veh IRGQ (11745062_a_at) / RFU FAM174B (11720279_a_at) / Fold change /veh FAM174B (11720279_a_at) / RFU TMPRSS4 (11748680_a_at) / Fold change /veh TMPRSS4 (11748680_a_at) / RFU FAM212B (11763350_a_at) / Fold change /veh FAM212B (11763350_a_at) / RFU PLEKHG5 (11743358_a_at) / Fold change /veh PLEKHG5 (11743358_a_at) / RFU ZSCAN30 (11745921_a_at) / Fold change /veh ZSCAN30 (11745921_a_at) / RFU CMKLR1 (11741424_a_at) / Fold change /veh CMKLR1 (11741424_a_at) / RFU LOC101060620 /// MAPK8IP1 (11723275_at) / Fold change /veh LOC101060620 /// MAPK8IP1 (11723275_at) / RFU SPTSSB (11747773_x_at) / Fold change /veh SPTSSB (11747773_x_at) / RFU PRSS12 (11739890_at) / Fold change /veh PRSS12 (11739890_at) / RFU BIN1 (11741810_x_at) / Fold change /veh BIN1 (11741810_x_at) / RFU WNT11 (11732464_a_at) / Fold change /veh WNT11 (11732464_a_at) / RFU C10orf10 (11716521_a_at) / Fold change /veh C10orf10 (11716521_a_at) / RFU C5orf56 (11738089_at) / Fold change /veh C5orf56 (11738089_at) / RFU CYB561 (11721691_x_at) / Fold change /veh CYB561 (11721691_x_at) / RFU ANKRD19P (11752326_a_at) / Fold change /veh ANKRD19P (11752326_a_at) / RFU OR2T12 /// OR2T33 /// OR2T8 (11738714_s_at) / Fold change /veh OR2T12 /// OR2T33 /// OR2T8 (11738714_s_at) / RFU VCAN (11748164_a_at) / Fold change /veh VCAN (11748164_a_at) / RFU JSRP1 (11732532_at) / Fold change /veh JSRP1 (11732532_at) / RFU KRTAP10-11 (11738290_x_at) / Fold change /veh KRTAP10-11 (11738290_x_at) / RFU MYO3A (11730013_a_at) / Fold change /veh MYO3A (11730013_a_at) / RFU EBF3 (11725865_a_at) / Fold change /veh EBF3 (11725865_a_at) / RFU CAMK2N1 (11719241_x_at) / Fold change /veh CAMK2N1 (11719241_x_at) / RFU C5orf56 (11738088_a_at) / Fold change /veh C5orf56 (11738088_a_at) / RFU OLFML3 (11715873_a_at) / Fold change /veh OLFML3 (11715873_a_at) / RFU LOC100653217 /// NTM (11731650_a_at) / Fold change /veh LOC100653217 /// NTM (11731650_a_at) / RFU MAPK11 (11762145_a_at) / Fold change /veh MAPK11 (11762145_a_at) / RFU FIZ1 (11724087_x_at) / Fold change /veh FIZ1 (11724087_x_at) / RFU OASL (11726364_x_at) / Fold change /veh OASL (11726364_x_at) / RFU SOX15 (11748057_x_at) / Fold change /veh SOX15 (11748057_x_at) / RFU CD79A (11719716_a_at) / Fold change /veh CD79A (11719716_a_at) / RFU HIST1H1D (11736915_at) / Fold change /veh HIST1H1D (11736915_at) / RFU CASKIN2 (11723855_a_at) / Fold change /veh CASKIN2 (11723855_a_at) / RFU LOC730098 (11760151_x_at) / Fold change /veh LOC730098 (11760151_x_at) / RFU OR4N2 (11742367_at) / Fold change /veh OR4N2 (11742367_at) / RFU PRRT2 (11749266_a_at) / Fold change /veh PRRT2 (11749266_a_at) / RFU SNX32 (11753110_a_at) / Fold change /veh SNX32 (11753110_a_at) / RFU CDHR5 (11726645_a_at) / Fold change /veh CDHR5 (11726645_a_at) / RFU RCAN1 (11760418_a_at) / Fold change /veh RCAN1 (11760418_a_at) / RFU FAM167A (11723789_a_at) / Fold change /veh FAM167A (11723789_a_at) / RFU FAM26E (11764081_at) / Fold change /veh FAM26E (11764081_at) / RFU ISYNA1 (11749810_s_at) / Fold change /veh ISYNA1 (11749810_s_at) / RFU ACY1 (11761880_at) / Fold change /veh ACY1 (11761880_at) / RFU 11764098_at / Fold change /veh 11764098_at / RFU SAMD14 (11745864_x_at) / Fold change /veh SAMD14 (11745864_x_at) / RFU NPB (11741838_a_at) / Fold change /veh NPB (11741838_a_at) / RFU TMPRSS6 (11731388_a_at) / Fold change /veh TMPRSS6 (11731388_a_at) / RFU KRTAP10-2 (11738614_at) / Fold change /veh KRTAP10-2 (11738614_at) / RFU ARHGAP8 /// PRR5-ARHGAP8 (11727945_x_at) / Fold change /veh ARHGAP8 /// PRR5-ARHGAP8 (11727945_x_at) / RFU KRTAP5-7 /// NADSYN1 (11734609_at) / Fold change /veh KRTAP5-7 /// NADSYN1 (11734609_at) / RFU RASL12 (11751679_a_at) / Fold change /veh RASL12 (11751679_a_at) / RFU CDKN2B (11736163_a_at) / Fold change /veh CDKN2B (11736163_a_at) / RFU PRF1 (11729649_at) / Fold change /veh PRF1 (11729649_at) / RFU, ZNF638 /// ZNF638-IT1 / Fold change vs veh, ZNF638 /// ZNF638-IT1 / RFU, PANK3 / Fold change vs veh, PANK3 / RFU, SH3YL1 / Fold change vs veh, SH3YL1 / RFU, ZEB2 / Fold change vs veh, ZEB2 / RFU, NRIP1 / Fold change vs veh, NRIP1 / RFU, PTTG1IP / Fold change vs veh, PTTG1IP / RFU, CAPN2 / Fold change vs veh, CAPN2 / RFU, MED14 / Fold change vs veh, MED14 / RFU, SNORA58 / Fold change vs veh, SNORA58 / RFU, C1orf63 / Fold change vs veh, C1orf63 / RFU, LRRFIP1 / Fold change vs veh, LRRFIP1 / RFU, NDUFAF7 / Fold change vs veh, NDUFAF7 / RFU, SLC12A2 / Fold change vs veh, SLC12A2 / RFU, IBTK / Fold change vs veh, IBTK / RFU, ESF1 / Fold change vs veh, ESF1 / Fold change vs veh, TMEM50B / RFU, TAOK1 / Fold change vs veh, TAOK1 / RFU, ACBD3 / Fold change vs veh, ACBD3 / RFU, TMA16 / Fold change vs veh, TMA16 / RFU, RWDD3 / Fold change vs veh, RWDD3 / RFU, BCAT1 / Fold change vs veh, BCAT1 / RFU, EDEM3 / Fold change vs veh, EDEM3 / RFU, TMEM33 / Fold change vs veh, TMEM33 / RFU, WDR75 / Fold change vs veh, WDR75 / RFU, AHCTF1 / Fold change vs veh, AHCTF1 / RFU, TFRC / Fold change vs veh, TFRC / RFU, ZDHHC17 / Fold change vs veh, ZDHHC17 / RFU, NOM1 / Fold change vs veh, NOM1 / RFU, ARL8B / Fold change vs veh, ARL8B / RFU, ZBTB11 / Fold change vs veh, ZBTB11 / RFU, TAMM41 / Fold change vs veh, TAMM41 / RFU, KIAA1704 /// LOC100996395 / Fold change vs veh, KIAA1704 /// LOC100996395 / RFU, ING1 / Fold change vs veh, ING1 / RFU, TRMT61B / Fold change vs veh, TRMT61B / RFU, FUBP3 / Fold change vs veh, FUBP3 / RFU, TP53 / Fold change vs veh, TP53 / RFU, TNKS2 / Fold change vs veh, TNKS2 / RFU, ZFP14 / Fold change vs veh, ZFP14 / RFU, ACTR2 / Fold change vs veh, ACTR2 / RFU, PPP3R1 / Fold change vs veh, PPP3R1 / RFU, PIK3R1 / Fold change vs veh, PIK3R1 / RFU, HNRNPA1 / Fold change vs veh, HNRNPA1 / RFU, RNF170 / Fold change vs veh, RNF170 / RFU, ZNF28 / Fold change vs veh, ZNF28 / RFU, RNGTT / Fold change vs veh, RNGTT / RFU, OGT / Fold change vs veh, OGT / RFU, BRD1 / Fold change vs veh, BRD1 / RFU, MARS / Fold change vs veh, MARS / RFU, ZNF655 / Fold change vs veh, ZNF655 / RFU, FAHD1 / Fold change vs veh, FAHD1 / RFU, BDP1 / Fold change vs veh, BDP1 / RFU, LRRCC1 / Fold change vs veh, LRRCC1 / RFU, ARID1A / Fold change vs veh, ARID1A / RFU, ZNF146 / Fold change vs veh, ZNF146 / RFU, ZNF330 / Fold change vs veh, ZNF330 / RFU, GPN3 / Fold change vs veh, GPN3 / RFU, C9orf123 / Fold change vs veh, C9orf123 / RFU, N4BP2L2 / Fold change vs veh, N4BP2L2 / RFU, ARFIP1 / Fold change vs veh, ARFIP1 / RFU, FAM179B / Fold change vs veh, FAM179B / RFU, BCL10 / Fold change vs veh, BCL10 / RFU, UHRF1BP1L / Fold change vs veh, UHRF1BP1L / RFU, BET1 / Fold change vs veh, BET1 / RFU, CNOT2 / Fold change vs veh, CNOT2 / RFU, ZNF268 / Fold change vs veh, ZNF268 / Fold change vs veh, ZNF507 / RFU, DGCR2 / Fold change vs veh, DGCR2 / RFU, WDSUB1 / Fold change vs veh, WDSUB1 / Fold change vs veh, HSP90B1 /// MIR3652 / RFU, ADSS / Fold change vs veh, ADSS / RFU, GK / Fold change vs veh, GK / RFU, ZNF148 / Fold change vs veh, ZNF148 / RFU, TAF9 / Fold change vs veh, TAF9 / RFU, SLC1A5 / Fold change vs veh, SLC1A5 / RFU, SLMO2 / Fold change vs veh, SLMO2 / RFU, ABCC4 / Fold change vs veh, ABCC4 / RFU, LOC101060439 /// RAP1B / Fold change vs veh, LOC101060439 /// RAP1B / RFU, RFX7 / Fold change vs veh, RFX7 / RFU, GTPBP10 / Fold change vs veh, GTPBP10 / RFU, CNEP1R1 / Fold change vs veh, CNEP1R1 / RFU, BIVM-ERCC5 /// ERCC5 / Fold change vs veh, BIVM-ERCC5 /// ERCC5 / RFU, ILF3 / Fold change vs veh, ILF3 / RFU 11762660_at / Fold change /veh 11762660_at / RFU VCAN (11757783_s_at) / Fold change /veh VCAN (11757783_s_at) / RFU DDX43 (11728927_at) / Fold change /veh DDX43 (11728927_at) / RFU KRT8 (11758188_x_at) / Fold change /veh KRT8 (11758188_x_at) / RFU NKD1 (11759106_at) / Fold change /veh NKD1 (11759106_at) / RFU SRD5A1 (11742802_a_at) / Fold change /veh SRD5A1 (11742802_a_at) / RFU TPSAB1 /// TPSB2 (11721975_s_at) / Fold change /veh TPSAB1 /// TPSB2 (11721975_s_at) / RFU GSTM3 (11746129_a_at) / Fold change /veh GSTM3 (11746129_a_at) / RFU IL23R (11737362_x_at) / Fold change /veh IL23R (11737362_x_at) / RFU TMEM51 (11727254_a_at) / Fold change /veh TMEM51 (11727254_a_at) / RFU PIWIL2 (11732686_x_at) / Fold change /veh PIWIL2 (11732686_x_at) / RFU ORM1 (11744905_x_at) / Fold change /veh ORM1 (11744905_x_at) / RFU CCDC152 (11743942_at) / Fold change /veh CCDC152 (11743942_at) / RFU ECM1 (11717891_a_at) / Fold change /veh ECM1 (11717891_a_at) / RFU IL23R (11748794_a_at) / Fold change /veh IL23R (11748794_a_at) / RFU TNFAIP8L3 (11732012_x_at) / Fold change /veh TNFAIP8L3 (11732012_x_at) / RFU MBOAT4 (11741988_at) / Fold change /veh MBOAT4 (11741988_at) / RFU 11764193_at / Fold change /veh 11764193_at / RFU TMEM53 (11763286_at) / Fold change /veh TMEM53 (11763286_at) / RFU MAGEB2 (11727129_at) / Fold change /veh MAGEB2 (11727129_at) / RFU TMEM200A (11744735_a_at) / Fold change /veh TMEM200A (11744735_a_at) / RFU CCDC152 (11751479_a_at) / Fold change /veh CCDC152 (11751479_a_at) / RFU FAM211A (11726209_a_at) / Fold change /veh FAM211A (11726209_a_at) / RFU RGS16 (11746705_a_at) / Fold change /veh RGS16 (11746705_a_at) / RFU VCAN (11755009_s_at) / Fold change /veh VCAN (11755009_s_at) / RFU RHOB (11743442_s_at) / Fold change /veh RHOB (11743442_s_at) / RFU RGS16 (11720943_a_at) / Fold change /veh RGS16 (11720943_a_at) / RFU RGS16 (11720944_at) / Fold change /veh RGS16 (11720944_at) / RFU, VPS4B / Fold change vs veh, VPS4B / RFU, CREB1 / Fold change vs veh, CREB1 / RFU, DNAJC13 / Fold change vs veh, DNAJC13 / RFU, GNAQ / Fold change vs veh, GNAQ / RFU, CDK5R1 / Fold change vs veh, CDK5R1 / RFU, ZRANB3 / Fold change vs veh, ZRANB3 / RFU, CUL4A / Fold change vs veh, CUL4A / RFU, CCNY / Fold change vs veh, CCNY / RFU, UFL1 / Fold change vs veh, UFL1 / RFU, COG3 / Fold change vs veh, COG3 / RFU, DIAPH2 / Fold change vs veh, DIAPH2 / RFU, SKA2 / Fold change vs veh, SKA2 / RFU, AFF3 / Fold change vs veh, AFF3 / RFU, LMF1 / Fold change vs veh, LMF1 / RFU, IPO11 / Fold change vs veh, IPO11 / RFU, DFFB / Fold change vs veh, DFFB / RFU, FOXP1 / Fold change vs veh, FOXP1 / RFU, CARD8 / Fold change vs veh, CARD8 / RFU, STRN3 / Fold change vs veh, STRN3 / RFU, ADK / Fold change vs veh, ADK / RFU, RASSF2 / Fold change vs veh, RASSF2 / RFU, WIPF1 / Fold change vs veh, WIPF1 / RFU, LARP1B / Fold change vs veh, LARP1B / RFU, RASA1 / Fold change vs veh, RASA1 / RFU, RB1 / Fold change vs veh, RB1 / RFU, PPFIA1 / Fold change vs veh, PPFIA1 / RFU, MAT2A / Fold change vs veh, MAT2A / RFU, CCT5 / Fold change vs veh, CCT5 / RFU, WDR92 / Fold change vs veh, WDR92 / RFU, CUX1 / Fold change vs veh, CUX1 / RFU, TTC7A / Fold change vs veh, TTC7A / RFU, TMEM135 / Fold change vs veh, TMEM135 / RFU, DEPTOR / Fold change vs veh, DEPTOR / RFU, CPM / Fold change vs veh, CPM / RFU, DNAJB6 / Fold change vs veh, DNAJB6 / RFU, CACNA2D3 / Fold change vs veh, CACNA2D3 / RFU, DTX4 / Fold change vs veh, DTX4 / RFU, TFCP2 / Fold change vs veh, TFCP2 / RFU, GMCL1 /// GMCL1P1 / Fold change vs veh, GMCL1 /// GMCL1P1 / RFU, AEBP2 / Fold change vs veh, AEBP2 / RFU, SNHG1 /// SNORD22 /// SNORD25 /// SNORD26 /// SNORD27 /// SNORD28 /// SNORD29 /// SNORD31 / Fold change vs veh, SNHG1 /// SNORD22 /// SNORD25 /// SNORD26 /// SNORD27 /// SNORD28 /// SNORD29 /// SNORD31 / Fold change (Aza/veh), C12orf56 (ProbeSet 11735607_a_at) / Fold change (ACY-1035/veh), C12orf56 (ProbeSet 11735607_a_at) / Fold change (Aza/veh), FGFR1OP (ProbeSet 11751329_s_at) / Fold change (ACY-1035/veh), FGFR1OP (ProbeSet 11751329_s_at) / Fold change (Aza/veh), VPS36 (ProbeSet 11739960_a_at) / Fold change (ACY-1035/veh), VPS36 (ProbeSet 11739960_a_at) / RFU SYPL1 (11715823_x_at) / Fold change /veh SYPL1 (11715823_x_at) / RFU IGFBP7 (11715501_s_at) / Fold change /veh IGFBP7 (11715501_s_at) / RFU REEP3 (11722064_at) / Fold change /veh REEP3 (11722064_at) / RFU IGLL1 (11728026_x_at) / Fold change /veh IGLL1 (11728026_x_at): dose or concentration left out as unconfirmed", "conditions": "MV-4-11 cells, 48 hours"}
{"smiles": "Nc1ccc(-c2cccs2)cc1NC(=O)c1ccc2c(c1)cc(C1CC1)n2CCN1CCOCC1", "note": "[ACY-1035]", "values": [{"measurement": "RFU VCAN (11757783_s_at)", "value": 8.50, "unit": "RFU"}]}
